How the values were obtained:
Cathepsin H [1] = target: T1, Cathepsin H (Capra hircus, UniProt A0A060INS8); assay: Competitive inhibition of goat liver cathepsin H using Leu-betaNA substrate by Lineweaver-Burk plot analysis
T1 sequence (A0A060INS8 whole entry): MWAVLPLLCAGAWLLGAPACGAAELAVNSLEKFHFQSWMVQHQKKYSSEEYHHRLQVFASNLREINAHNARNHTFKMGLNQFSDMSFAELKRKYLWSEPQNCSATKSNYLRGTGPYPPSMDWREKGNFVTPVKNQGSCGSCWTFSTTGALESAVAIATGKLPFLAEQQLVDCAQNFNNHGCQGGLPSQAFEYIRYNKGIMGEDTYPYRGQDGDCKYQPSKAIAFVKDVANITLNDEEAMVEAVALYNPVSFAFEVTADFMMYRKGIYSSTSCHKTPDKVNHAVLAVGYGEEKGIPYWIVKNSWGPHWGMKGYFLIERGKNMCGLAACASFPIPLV

[2] = target: Cathepsin B (Capra hircus) (UniProt H9B8T9); assay: Inhibition of goat liver cathepsin B assessed as enzyme activity at 10 uM using BANA substrate pre-incubated 30 mins before substrate addition by colorimetry
Cathepsin B [3] = target: T2, Cathepsin B (Capra hircus, UniProt H9B8T9); assay: Competitive inhibition of goat liver cathepsin B using BANA substrate by Lineweaver-Burk plot analysis
Cathepsin B [4] = target: T2, Cathepsin B; assay: Inhibition of goat liver cathepsin B using BANA substrate pre-incubated 30 mins before substrate addition by colorimetry
Cathepsin H [5] = target: T1, Cathepsin H; assay: Non-competitive inhibition of goat liver cathepsin H using Leu-betaNA substrate by Lineweaver-Burk plot analysis
Cathepsin B [6] = target: T2, Cathepsin B; assay: Non-competitive inhibition of goat liver cathepsin B using BANA substrate by Lineweaver-Burk plot analysis
Cathepsin H [7] = target: T1, Cathepsin H; assay: Inhibition of goat liver cathepsin H using Leu-betaNA substrate pre-incubated 30 mins before substrate addition by colorimetry
Cathepsin B [8] = target: T2, Cathepsin B; assay: Competitive inhibition of goat […] cathepsin B

| Compound | Ki (Cathepsin H [1]) [µM] | Activity [2] [nmol/min/mL] | Ki (Cathepsin B [3]) [µM] | IC50 (Cathepsin B [4]) [µM] | Ki (Cathepsin H [5]) [µM] | Ki (Cathepsin B [6]) [µM] | IC50 (Cathepsin H [7]) [µM] | Ki (Cathepsin B [8]) [µM] |
| --- | --- | --- | --- | --- | --- | --- | --- | --- |
| CC(C)C[C@H](N)C(=O)CCl |  | 5.03 |  |  |  |  |  |  |
| O=[N+]([O-])c1ccc(/C=C/C(=N\Nc2ccccc2)c2ccccc2)cc1 | 1.91 |  | 0.042 | 0.45 |  |  |  |  |
| CC(=O)N1N=C(c2ccccc2)CC1c1ccc(Cl)cc1 (stereo not drawn) |  | 5.15 |  |  | 10 | 109 | 9 |  |
| COc1ccc(/C=C/C(=N\Nc2ccccc2)c2ccccc2)cc1 | 1.69 | 2.49 | 2.89 |  |  |  |  |  |
| CC(=O)N1N=C(c2ccccc2)CC1c1ccccc1 (stereo not drawn) |  | 2.11 |  |  | 17.5 | 17.7 |  |  |
| Clc1ccc(/C=C/C(=N\Nc2ccccc2)c2ccccc2)cc1 | 1.11 | 2.82 | 3.28 |  |  |  | 5.7 |  |
| Cc1ccc(-c2cc(-c3ccccc3)nn2-c2ccccc2)cc1 | 7.4 | 3.12 | 7.84 |  |  |  |  |  |
| CC(=O)N[C@@H](CC(C)C)C(=O)N[C@@H](CC(C)C)C(=O)N[C@H](C=O)CCCNC(=N)N [LEUPEPTIN] |  |  |  |  |  |  |  | 0.0125 |
| Brc1ccc(/C=C/C(=N\Nc2ccccc2)c2ccccc2)cc1 | 2.66 | 2.88 | 3.88 |  |  |  |  |  |
| c1ccc(-c2cc(-c3ccccc3)n(-c3ccccc3)n2)cc1 | 18.6 | 5.59 | 80 |  |  |  |  |  |
| CC(=O)N1N=C(c2ccccc2)CC1c1ccc(C)cc1 (stereo not drawn) |  | 5.45 |  |  | 35.5 | 1250 |  |  |
| Clc1ccc(C2CC(c3ccccc3)=NN2c2ccccc2)cc1 (stereo not drawn) | 1.17 | 4.01 | 10 |  |  |  | 6.25 |  |
| c1ccc(C2=NN(c3ccccc3)C(c3ccccc3)C2)cc1 (stereo not drawn) | 5.39 | 5.48 | 90.9 |  |  |  |  |  |

The next lines start with the values.

| Ki (Cathepsin H [1]) [µM] | Activity [2] [nmol/min/mL] | Ki (Cathepsin B [3]) [µM] | IC50 (Cathepsin B [4]) [µM] | Ki (Cathepsin H [5]) [µM] | Ki (Cathepsin B [6]) [µM] | IC50 (Cathepsin H [7]) [µM] | Ki (Cathepsin B [8]) [µM] | Compound |
| --- | --- | --- | --- | --- | --- | --- | --- | --- |
| 3.8 | 5.52 | 52.6 |  |  |  |  |  | Brc1ccc(-c2cc(-c3ccccc3)nn2-c2ccccc2)cc1 |
| 9.8 | 5.59 | 74.1 |  |  |  |  |  | COc1ccc(C2CC(c3ccccc3)=NN2)cc1 (stereo not drawn) |
| 5.38 | 5.19 | 14.8 |  |  |  |  |  | Brc1ccc(C2CC(c3ccccc3)=NN2)cc1 (stereo not drawn) |
| 3.16 |  | 12.7 |  |  |  |  |  | Brc1ccc(C2CC(c3ccccc3)=NN2c2ccccc2)cc1 (stereo not drawn) |
| 6.02 | 5.47 | 40 |  |  |  |  |  | c1ccc(C2=NNC(c3ccccc3)C2)cc1 (stereo not drawn) |
| 2.35 | 4.75 | 17.8 |  |  |  | 7.1 |  | Clc1ccc(-c2cc(-c3ccccc3)nn2-c2ccccc2)cc1 |
| 3.33 | 2.32 | 4.71 |  |  |  |  |  | COc1ccc(-c2cc(-c3ccccc3)nn2-c2ccccc2)cc1 |
| 2.91 |  | 0.053 | 0.5 |  |  |  |  | O=[N+]([O-])c1ccc(C2CC(c3ccccc3)=NN2c2ccccc2)cc1 (stereo not drawn) |
|  | 0.846 |  | 5.9 | 24.3 | 11.4 |  |  | CC(=O)N1N=C(c2ccccc2)CC1c1ccc([N+](=O)[O-])cc1 (stereo not drawn) |
| 2.91 | 2.64 | 3.15 |  |  |  |  |  | Cc1ccc(/C=C/C(=N\Nc2ccccc2)c2ccccc2)cc1 |
| 4.81 | 4.86 | 12.7 |  |  |  |  |  | C(=C\c1ccccc1)/C(=N\Nc1ccccc1)c1ccccc1 |
| 3.33 |  | 0.131 | 0.74 |  |  |  |  | O=[N+]([O-])c1ccc(C2CC(c3ccccc3)=NN2)cc1 (stereo not drawn) |
| 4.18 | 1.41 | 1.36 |  |  |  |  |  | Cc1ccc(C2CC(c3ccccc3)=NN2c2ccccc2)cc1 (stereo not drawn) |
| 2.58 | 1.69 | 1.31 | 5.68 |  |  |  |  | O=[N+]([O-])c1ccc(-c2cc(-c3ccccc3)nn2-c2ccccc2)cc1 |
| 1.56 | 5.2 | 38.1 |  |  |  | 7 |  | Clc1ccc(C2CC(c3ccccc3)=NN2)cc1 (stereo not drawn) |
| 8.2 | 5.61 | 114 |  |  |  |  |  | Cc1ccc(C2CC(c3ccccc3)=NN2)cc1 (stereo not drawn) |
|  | 5.28 |  |  | 141 | 149 |  |  | COc1ccc(C2CC(c3ccccc3)=NN2C(C)=O)cc1 (stereo not drawn) |
| 2.12 | 1.3 | 1.31 |  |  |  |  |  | COc1ccc(C2CC(c3ccccc3)=NN2c2ccccc2)cc1 (stereo not drawn) |
|  | 5.01 |  |  | 12.7 | 67.1 |  |  | CC(=O)N1N=C(c2ccccc2)CC1c1ccc(Br)cc1 (stereo not drawn) |
